Counter-ions that a name gives are not always drawn.
Legend:
[1] = Stability of conjugates in Simulated Intestinal Fluid (SIF); type: in vitro ADME; conditions: SIF pH 6.7 with pancreatin, 37° C., 1 μM compound
Protocol: Assay 2. Stability of conjugates in Simulated Intestinal Fluid (SIF). This assay was used to assess the stability of a conjugate in a small intestine.
Phosphate buffer was prepared by dissolving 0.42 g of sodium hydroxide pellets and 3.95 g of monobasic sodium phosphate monohydrate and 6.19 g of sodium chloride in ultrapure water (MilliQ®, Millipore Sigma, Darmstadt, Germany). The pH was adjusted to 6.7 using aq. HCl and aq. NaOH, as necessary, and the solution was diluted with ultrapure water to produce 1 L of the pH 6.7 buffer.
112 mg FaSSIF powder (Biorelevant™, London, UK) was dissolved in 50 mL of the pH 6.7 buffer. 2 to 3 mL of the resulting solution were then added to 500 mg pancreatin (Millipore Sigma, Darmstadt, Germany). The resulting mixture was agitated by finger tapping the vessel containing the mixture until milky suspension formed. At this time, the remainder of the 50 mL FaSSiF/pH 6.7 buffer solution was added. The resulting suspension was flipped upside down 10 times to produce SIF, which was used fresh.
(§1) Test compounds were dissolved in DMSO stock to 1 mM. An aliquot of the DMSO stock solution was removed and diluted in the SIF media in 15 mL falcon tubes to produce a mixture with a tested compound concentration of 1 μM. A 1 mL aliquot was immediately removed and diluted once with 1 volume of acetonitrile for TO timepoint. The mixture was sealed and agitated at 37° C. in an incubator. Aliquots (1 mL) were removed at regular intervals and immediately quenched by the addition of 1 volume of acetonitrile. The resulting samples were analyzed by LC/MS to determine degradation rates

[2] = Stability of conjugates in Simulated Gastric Fluid (SGF); type: in vitro ADME; conditions: SGF pH 1.6 with pepsin, 37° C., 1 μM compound
Protocol: Assay 1. Stability of conjugates in Simulated Gastric Fluid (SGF). This assay was used to assess the stability of a conjugate in a stomach.
Medium was prepared by dissolving 2 g of sodium chloride in 0.6 L in ultrapure water (MilliQ®, Millipore Sigma, Darmstadt, Germany). The pH was adjusted to 1.6 with 1N hydrochloric acid, and the volume was then adjusted to 1 L with purified water.
60 mg FaSSIF powder (Biorelevant™, London, UK) were dissolved in 500 mL buffer (above). Pepsin was added (0.1 mg/mL) (Millipore Sigma, Darmstadt, Germany), and the solution was stirred. The resulting SGF media were used fresh for each experiment.
as §1, with “SGF Media” for “SIF media”, “generate” for “produce”, “total” for “mixture with a tested”, “mixed” for “agitated”, “rates in SGF.” for “rates”

[3] = In vitro Colonic Material Stability Assay; type: in vitro ADME; conditions: colonic material slurry in YCFAC media, anaerobic, 1 or 10 μM
Protocol: Assay 3. In vitro Colonic Material Stability Assay. This assay was used to assess the stability of a conjugate in a large intestine. All experiments were performed in an anaerobic chamber containing 90% nitrogen, 5% hydrogen and 5% carbon dioxide. Colonic material was resuspended as a slurry (15% w/v final concentration) in pre-reduced, anaerobically sterilized dilution blanks (Anaerobe Systems AS-908). The colonic material was then inoculated into 96 well plates containing YCFAC media (Anaerobe Systems AS-680) or other suitable media (6.7 μL slurry into 1 mL total media). Compounds or groups of compounds were added to each individual well to reach a final analyte concentration of 1 or 10 μM, and the material was mixed by pipetting. Sample was removed after set timepoints (0, 120, 240, 480, 1440, 2880 minutes after initiation of the assay), quenched with acetonitrile containing internal standard, and analyzed by LC/MS.

[4] = Gastrointestinal (GI) Exposure to Propionate (Study 1); type: in vivo, CD-1 mice; conditions: mouse; for Propionate-d3 AUClast / Propionate-d3 Tmax: single oral dose: Propionate-d3 62 mg/kg, Compound 3-d12 110 mg/kg, Compound 6-d9 91 mg/kg
Protocol: In order to measure propionate concentrations along the GI track, CD-1 mice were orally administered a single dose of deuterated sodium propionate, Compound 3 comprising deuterated propionate, or Compound 6 comprising deuterated propionate (Propionate-d3, Compound 3-d12, and Compound 6-d9, respectively; suspension, 1% (w/v) methyl cellulose in deionized water). The amounts of compound dosed were normalized to provide approximately equimolar amounts of […] (Propionate-d3 at 62 mg/kg, Compound 3-d12 at 110 mg/kg, and Compound 6-d9 at 91 mg/kg). […] Blood samples were collected in K2EDTA tubes and stored on wet ice no more than 30 min and then further processed to plasma. GI samples were placed into separate labeled, pre-weighted collection tubes and frozen before analysis. Brain samples were homogenized prior to analysis. Samples were subsequently worked up and analyzed by LC-MS/MS for deuterated propionate concentration. Propionate concentrations versus time for different tissues are depicted in FIGS. 4A-4H and 5A-5C.

SMILES | Assay 2 (SIF) (% @ Remaining 4 hours) [1] | Assay 1 (SGF) (% Remaining @ 1 hour) [2] | Assay 3 (% Remaining at 24 h) [3] | also measured
CCCC(=O)O[C@@H]1[C@@H](OC(=O)CCC)[C@@H](OC(=O)/C=C/C(=O)OC)OC[C@H]1OC(=O)CCC [Compound 8, Methyl ((2R,3R,4S,5R)-3,4,5-tris(butyryloxy)tetrahydro-2H-pyran-2-yl) fumarate] | A (A: <25% of the tested compound remaining) | C (C: >75% of the tested compound remaining) | C (C: >75% of the tested compound remaining) | –
[2H]C([2H])([2H])CC(=O)[O-].[Na+] [Propionate-d3, sodium propionate-d3, reference compound] | – | – | – | Propionate-d3 AUClast ([4]; Brain): below quantitative; Propionate-d3 Tmax ([4]; Brain): 15 min; Propionate-d3 AUClast ([4]; Cecum): 76 nmol·h/g; Propionate-d3 Tmax ([4]; Cecum): 15 min; Propionate-d3 AUClast ([4]; Distal Colon): 31 nmol·h/g; Propionate-d3 Tmax ([4]; Distal Colon): 15 min; Propionate-d3 AUClast ([4]; Distal Intestine): 6.6 nmol·h/g; Propionate-d3 Tmax ([4]; Distal Intestine): 30 min; Propionate-d3 AUClast ([4]; Proximal Colon): 46 nmol·h/g; Propionate-d3 Tmax ([4]; Proximal Colon): 15 min; Propionate-d3 AUClast ([4]; Proximal Intestine): 13 nmol·h/g; Propionate-d3 Tmax ([4]; Proximal Intestine): 15 min; Propionate-d3 AUClast ([4]; Stomach): 7020 nmol·h/g; Propionate-d3 Tmax ([4]; Stomach): 15 min; region where the highest concentrations (Cmax) of propionate-d3 were observed ([4]; single oral dose, GI tissues): stomach
CCC(=O)O[C@H]1[C@@H](OC(=O)/C=C/C(=O)OC)OC[C@@H](OC(=O)CC)[C@H]1OC(=O)CC [Compound 9, Methyl ((2R,3R,4R,5R)-3,4,5-tris(propionyloxy)tetrahydro-2H-pyran-2-yl) fumarate] | A (A: <25% of the tested compound remaining) | C (C: >75% of the tested compound remaining) | C (C: >75% of the tested compound remaining) | –
CCCC(=O)O[C@@H]1O[C@H](COC(=O)/C=C/C(=O)OC)[C@@H](OC(=O)CCC)[C@H](OC(=O)CCC)[C@H]1OC(=O)CCC [Compound 23, Methyl (((2R,3R,4S,5R,6S)-3,4,5,6-tetrakis(butyryloxy)tetrahydro-2H-pyran-2-yl)methyl) fumarate] | A (A: <25% of the tested compound remaining) | B (B: 25-75% of the tested compound remaining) | A (A: <25% of the tested compound remaining) | –
CCCC(=O)O[C@@H]1[C@@H](OC(=O)CCC)[C@H](OC(=O)/C=C/C(=O)OC)OC[C@@H]1OC(=O)CCC [Compound 36, 1-methyl (2S,3R,4S,5S)-3,4,5-tris(butanoyloxy)oxan-2-yl (2E)-but-2-enedioate] | A (A: <25% of the tested compound remaining) | C (C: >75% of the tested compound remaining) | C (C: >75% of the tested compound remaining) | –
CCCC(=O)O[C@@H]1[C@@H](OC(=O)CCC)[C@@H](OC(=O)/C=C/C(=O)OC)O[C@H](CO)[C@H]1OC(=O)CCC [Compound 39, 1-methyl (2R,3R,4S,5R,6R)-3,4,5-tris(butanoyloxy)-6-(hydroxymethyl)oxan-2-yl (2E)-but-2-enedioate] | A (A: <25% of the tested compound remaining) | C (C: >75% of the tested compound remaining) | A (A: <25% of the tested compound remaining) | –
CCC(=O)OC[C@H]1O[C@@H](OC(=O)/C=C/C(=O)OC)[C@H](N)[C@@H](OC(=O)CC)[C@@H]1OC(=O)CC.Cl [Compound 27, (2S,3R,4R,5S,6R)-2-(((E)-4-methoxy-4-oxobut-2-enoyl)oxy)-4,5-bis(propionyloxy)-6-((propionyloxy)methyl)tetrahydro-2H-pyran-3-aminium Chloride] | C (C: >75% of the tested compound remaining) | – | B (B: 25-75% of the tested compound remaining) | –
CCCC(=O)OC[C@H]1O[C@H](OC(=O)/C=C/C(=O)OC)[C@H](N)[C@@H](OC(=O)CCC)[C@@H]1OC(=O)CCC.Cl [Compound 28, (2R,3R,4R,5S,6R)-4,5-bis(butyryloxy)-6-((butyryloxy)methyl)-2-(((E)-4-methoxy-4-oxobut-2-enoyl)oxy)tetrahydro-2H-pyran-3-aminium Chloride] | B (B: 25-75% of the tested compound remaining) | – | B (B: 25-75% of the tested compound remaining) | –
CCCC(=O)O[C@@H]1[C@@H](OC(=O)CCC)[C@@H](OC(=O)/C=C/C(=O)OC)OC[C@@H]1OC(=O)CCC [Compound 12, Methyl ((2R,3R,4S,5S)-3,4,5-tris(butyryloxy)tetrahydro-2H-pyran-2-yl) fumarate] | A (A: <25% of the tested compound remaining) | C (C: >75% of the tested compound remaining) | C (C: >75% of the tested compound remaining) | –
CCCC(=O)O[C@H]1[C@H](OC(=O)CCC)[C@H](OC(=O)/C=C/C(=O)OC)O[C@@H](C)[C@H]1OC(=O)CCC [Compound 13, Methyl ((2S,3S,4R,5R,6S)-3,4,5-tris(butyryloxy)-6-methyltetrahydro-2H-pyran-2-yl) fumarate] | A (A: <25% of the tested compound remaining) | B (B: 25-75% of the tested compound remaining) | C (C: >75% of the tested compound remaining) | –
CCC(=O)O[C@@H]1[C@@H](OC(=O)CC)[C@H](OC(=O)/C=C/C(=O)OC)OC[C@@H]1OC(=O)CC [Compound 5, Methyl ((2S,3R,4S,5S)-3,4,5-tris(propionyloxy)tetrahydro-2H-pyran-2-yl) fumarate] | C (C: >75% of the tested compound remaining) | C (C: >75% of the tested compound remaining) | A (A: <25% of the tested compound remaining) | –
CCC(=O)O[C@@H]1[C@@H](OC(=O)CC)[C@@H](OC(=O)/C=C/C(=O)OC)OC[C@H]1OC(=O)CC [Compound 16, Methyl ((2R,3R,4S,5R)-3,4,5-tris(propionyloxy)tetrahydro-2H-pyran-2-yl) fumarate] | – | – | C (C: >75% of the tested compound remaining) | –

From US20210299079A1, “MONOMETHYL FUMARATE-CARRIER CONJUGATES AND METHODS OF THEIR USE” (Flagship Pioneering Innovations V, Inc., priority 2018, published 2021)
